Data on 30 compounds can be found in patent US11426397B2, “Piperidinyl- and piperazinyl-substituted heteroaromatic carboxamides as modulators of GPR6” (TAKEDA PHARMACEUTICAL COMPANY LIMITED, priority 2017, dated 2022).

This experiment concerns the target T1, GPR6 receptor expressed in CHO-K1 cells (Homo sapiens, UniProt P46095).
T1 construct: expressed in transfected cells
As to the kind of experiment: In vitro inhibition of cAMP (EC50), cell-based HTRF cAMP assay. The conditions noted are these: inhibition of constitutive cAMP activity of GPR6 in CHO-K1 cells. The protocol: I. In Vitro Inhibition of cAMP (EC50)
This cell based assay measures the ability of test compounds to inhibit the constitutive cAMP activity of GPR6 receptor expressed in CHO-K1 cells. CHO cells are stably expressed with GPR6 receptor, whose expression is controlled by a tetracycline inducible element. The cells were cultured in medium containing F12K, 10% FBS, 1% Penn/Strep, 200 μg/mL Hygromycin. GPR6 receptor expression is induced for 20 hours with 2 μg/mL doxycycline (Sigma D9891) in growth media. After addition of doxycycline, the cells are plated at a density of 450-750 cells per well in 96-well half-volume black tissue culture plates (Costar) and placed in an incubator (37° C., 5% CO2) for 20 hours prior to cAMP assays.
Culture media is removed from the cells and they are washed with 50 μL/well of Ringer's Buffer (MgCl2 0.047 mg/mL, NaH2PO4 0.18 mg/mL, Na2HPO4 0.1 mg/mL, KCl 0.34 mg/mL, NaHCO3 1.26 mg/mL, D-glucose 1.8 mg/mL, NaCl 7 mg/mL; pH=7.4). The test compounds are suspended in DMSO, diluted in Ringer's Buffer containing 0.5% fatty acid free BSA plus 300 μM IBMX, and incubated on the cells for 45 minutes at 37° C. and 5% CO2. After incubation, the cells are conditioned for 10 minutes at room temp with Eu-cAMP tracer solution from a Perkin Elmer Lance HTRF Ultra cAMP assay kit (TRF0263). Then ULight™-anti-cAMP solution from the Lance HTRF kit is added and incubated on a shaker at room temp for 1 hour prior to HTRF detection in a Perkin Elmer Envision plate reader. EC50 curves are generated with a four-parameter logistic equation using GraphPad Prism 5.03.
Table 1 lists biological assay data (in vitro inhibition of cAMP) for some of the compounds shown in the examples, where larger pEC50 values represent higher activity or potency. All of the compounds shown in Table 1 were tested in accordance with a cell-based assay which measures the ability of test compounds to inhibit the constitutive cAMP activity of GPR6 receptor expressed in CHO-K1 cells (reported as pEC50). The assay is described in the specification under the heading “In vitro inhibition of cAMP (EC50).”

T1 sequence (P46095 whole entry): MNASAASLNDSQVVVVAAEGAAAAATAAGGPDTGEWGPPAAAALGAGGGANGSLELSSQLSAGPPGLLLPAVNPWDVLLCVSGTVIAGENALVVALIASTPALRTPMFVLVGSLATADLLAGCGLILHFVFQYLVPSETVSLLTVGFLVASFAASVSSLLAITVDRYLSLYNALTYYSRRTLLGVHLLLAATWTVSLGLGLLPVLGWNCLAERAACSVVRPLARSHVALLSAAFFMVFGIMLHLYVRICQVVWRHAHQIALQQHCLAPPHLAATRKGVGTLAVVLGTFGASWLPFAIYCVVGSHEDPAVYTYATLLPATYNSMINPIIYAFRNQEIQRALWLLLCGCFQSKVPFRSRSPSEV

For `COc1ccc(C(F)(F)F)cc1C(=O)Nc1cc(C#N)ccc1N1CCC(Oc2ccc(F)cc2F)CC1` [Example 208, N-(5-cyano-2-(4-(2,4-difluorophenoxy)piperidin-1-yl)phenyl)-2-methoxy-5-(trifluoromethyl)benzamide], the “pEC50, in vitro inhibition of cAMP” value is 6.9. On to `COc1nn(C)cc1C(=O)Nc1cc(C#N)cnc1N1CCN(Cc2cccc(OC(F)(F)F)c2)CC1` [Example 165, N-(5-cyano-2-(4-(3-(trifluoromethoxy)benzyl)piperazin-1-yl)pyridin-3-yl)-3-methoxy-1-methyl-1H-pyrazole-4-carboxamide], for which the “pEC50, in vitro inhibition of cAMP” value is 6.7. Regarding `COc1c(C)cc(Cl)cc1C(=O)Nc1cc(C#N)ccc1N1CCC(Oc2ccc(F)cc2F)CC1` [Example 195], the “pEC50, in vitro inhibition of cAMP” value was 5.9. Turning to `CN(C(=O)c1ccccc1O)c1ccccc1N1CCN(C(=O)c2ccc(Cl)cc2)CC1` [Example 260], the “pEC50, in vitro inhibition of cAMP” value came to 4.9. Next, `COc1nn(C)cc1C(=O)Nc1cc(C#N)cnc1N1CCN(Cc2cccc(OC(F)F)c2)CC1` [Example 164, N-(5-cyano-2-(4-(3-(difluoromethoxy)benzyl)piperazin-1-yl)pyridin-3-yl)-3-methoxy-1-methyl-1H-pyrazole-4-carboxamide]: 6.5; `Cc1cc(=O)c(C(=O)Nc2cc(C#N)ccc2N2CCC(Oc3ccc(F)cc3F)CC2)cn1C` [Example 24, N-(5-cyano-2-(4-(2,4-difluorophenoxy)piperidin-1-yl)phenyl)-1,6-dimethyl-4-oxo-1,4-dihydropyridine-3-carboxamide]: 6.2.

`COc1cc(Br)ccc1C(=O)Nc1cc(C#N)ccc1N1CCC(Oc2ccc(F)cc2F)CC1` [Example 226, 4-bromo-N-(5-cyano-2-(4-(2,4-difluorophenoxy)piperidin-1-yl)phenyl)-2-methoxybenzamide]: the “pEC50, in vitro inhibition of cAMP” value stood at 7.0. For the compound `COc1nn(C)cc1C(=O)Nc1cc(C#N)cnc1N1CCN(Cc2cc(F)cc(F)c2)CC1` [Example 169, N-(5-cyano-2-(4-(3,5-difluorobenzyl)piperazin-1-yl)pyridin-3-yl)-3-methoxy-1-methyl-1H-pyrazole-4-carboxamide], the “pEC50, in vitro inhibition of cAMP” value was found to be 6.4. For `COc1c(F)cccc1C(=O)Nc1cc(S(C)(=O)=O)ccc1N1CCC(Oc2ccc(F)cc2F)CC1` [Example 10], the “pEC50, in vitro inhibition of cAMP” value was found to be 6.9. The result for `Cc1cccn2c(=O)c(C(=O)Nc3cc(C#N)ccc3N3CCC(Oc4ccc(F)cc4F)CC3)cnc12` [Example 197, N-(5-cyano-2-(4-(2,4-difluorophenoxy)piperidin-1-yl)phenyl)-9-methyl-4-oxo-4H-pyrido[1,2-a]pyrimidine-3-carboxamide] reads 6.7. The result for `COc1ncccc1C(=O)Nc1cc(C#N)ccc1N1CCN(Cc2cscn2)CC1` [Example 241, N-(5-cyano-2-(4-(thiazol-4-ylmethyl)piperazin-1-yl)phenyl)-2-methoxynicotinamide] reads 6.0. The result for `Cc1cccc(C(=O)Nc2cc(C#N)cnc2N2CCC(Oc3ccc(F)cc3F)CC2)n1` [Example 54, N-(5-cyano-2-(4-(2,4-difluorophenoxy)piperidin-1-yl)pyridin-3-yl)-6-methylpicolinamide] reads 7.4; that for `Cn1cccc(C(=O)Nc2cc(C#N)ccc2N2CCC(Oc3cccc(F)c3)CC2)c1=O` [Example 12, N-(5-cyano-2-(4-(3-fluorophenoxy)piperidin-1-yl)phenyl)-1-methyl-2-oxo-1,2-dihydropyridine-3-carboxamide], 6.4; that for `COc1ccncc1C(=O)Nc1cc(C)cnc1N1CCC(Oc2ccc(F)cc2F)CC1` [Example 35, N-(2-(4-(2,4-difluorophenoxy)piperidin-1-yl)-5-methylpyridin-3-yl)-4-methoxynicotinamide], 7.4. With `Cn1cccc(C(=O)Nc2cc(C#N)ccc2N2CCC(C(F)(F)c3cc(Cl)ccc3F)CC2)c1=O` [Example 89, N-(2-(4-((5-chloro-2-fluorophenyl)difluoromethyl)piperidin-1-yl)-5-cyanophenyl)-1-methyl-2-oxo-1,2-dihydropyridine-3-carboxamide], the “pEC50, in vitro inhibition of cAMP” value stood at 6.3. For the compound `COc1ccc(OC)c(C(=O)Nc2cc(C#N)ccc2N2CCC(Oc3ccc(F)cc3F)CC2)c1` [Example 205, N-(5-cyano-2-(4-(2,4-difluorophenoxy)piperidin-1-yl)phenyl)-2,5-dimethoxybenzamide], the “pEC50, in vitro inhibition of cAMP” value is listed as 6.0. Next, `COc1ncccc1C(=O)Nc1cc(C#N)ccc1N1CCN(S(=O)(=O)c2ccc(F)cc2)CC1` [Example 287, N-(5-cyano-2-(4-((4-fluorophenyl)sulfonyl)piperazin-1-yl)phenyl)-2-methoxynicotinamide]: 6.2; `COc1cc(C)ccc1C(=O)Nc1cc(C#N)ccc1N1CCC(Oc2ccc(F)cc2F)CC1` [Example 236, N-(5-cyano-2-(4-(2,4-difluorophenoxy)piperidin-1-yl)phenyl)-2-methoxy-4-methylbenzamide]: 7.1. Consider `Cc1ccc(NC(=O)c2cnn(C)c2O)c(N2CCN(Cc3ccc(F)cc3)CC2)n1` [Example 104], for which the “pEC50, in vitro inhibition of cAMP” value is listed as less than 5.7.

For the compound `COc1ccc(C(=O)Nc2cc(C#N)ccc2N2CCC(Oc3ccc(F)cc3F)CC2)c(OC)n1` [Example 78, N-(5-cyano-2-(4-(2,4-difluorophenoxy)piperidin-1-yl)phenyl)-2,6-dimethoxynicotinamide], the “pEC50, in vitro inhibition of cAMP” value was 6.9.

With `COc1nn(C)cc1C(=O)Nc1cc(C#N)ccc1N1CCC(S(=O)(=O)c2cccc(F)c2)CC1` [Example 97, N-(5-cyano-2-(4-((3-fluorphenyl)sulfonyl)piperidin-1-yl)phenyl)-3-methoxy-1-methyl-1H-pyrazole-4-carboxamide], the “pEC50, in vitro inhibition of cAMP” value is on record as 6.4. On to `COc1nn(C)cc1C(=O)Nc1cc(C#N)ncc1N1CCN(Cc2ccc(F)c(F)c2F)CC1` [Example 266, N-(2-cyano-5-(4-(2,3,4-trifluorobenzyl)piperazin-1-yl)pyridin-4-yl)-3-methoxy-1-methyl-1H-pyrazole-4-carboxamide], for which the “pEC50, in vitro inhibition of cAMP” value is listed as 6.8. With `COc1nccc(C(=O)Nc2cc(C#N)ccc2N2CCC(Oc3ccc(F)cc3F)CC2)n1` [Example 144], the “pEC50, in vitro inhibition of cAMP” value came to 6.9. As for `N#Cc1ccc(N2CCC(Oc3ccc(F)cc3F)CC2)c(NC(=O)c2cccn(C3CCCCC3)c2=O)c1` [Example 180, N-(5-cyano-2-(4-(2,4-difluorophenoxy)piperidin-1-yl)phenyl)-1-cyclohexyl-2-oxo-1,2-dihydropyridine-3-carboxamide], the “pEC50, in vitro inhibition of cAMP” value was 5.8. On to `COc1cc(C(C)(C)C)ccc1C(=O)Nc1cc(C#N)ccc1N1CCC(Oc2ccc(F)cc2F)CC1` [Example 216, 4-(tert-butyl)-N-(5-cyano-2-(4-(2,4-difluorophenoxy)piperidin-1-yl)phenyl)-2-methoxybenzamide], for which the “pEC50, in vitro inhibition of cAMP” value amounted to 6.4. Regarding `COc1cc(N2CCC(Oc3ccc(F)cc3F)CC2)c(NC(=O)c2cnccc2OC)cn1` [Example 21, N-(4-(4-(2,4-difluorophenoxy)piperidin-1-yl)-6-methoxypyridin-3-yl)-4-methoxynicotinamide], the “pEC50, in vitro inhibition of cAMP” value was 7.4. `COc1ncc(F)cc1C(=O)Nc1cnc(C(=O)N(C)C)cc1N1CCC(Oc2ccc(F)cc2F)CC1` [Example 32]: the “pEC50, in vitro inhibition of cAMP” value is on record as 7.0.

For `Cn1cccc(C(=O)Nc2cc(S(=O)(=O)N3CCOCC3)cnc2N2CCC(Oc3ccc(F)cc3F)CC2)c1=O` [Example 279, N-(2-(4-(2,4-difluorophenoxy)piperidin-1-yl)-5-(morpholinosulfonyl)pyridin-3-yl)-1-methyl-2-oxo-1,2-dihydropyridine-3-carboxamide], the “pEC50, in vitro inhibition of cAMP” value was 7.0. In the case of `N#Cc1ccc(N2CCC(Oc3ccc(F)cc3F)CC2)c(NC(=O)c2cnc3sccn3c2=O)c1` [Example 200, N-(5-cyano-2-(4-(2,4-difluorophenoxy)piperidin-1-yl)phenyl)-5-oxo-5H-thiazolo[3,2-a]pyrimidine-6-carboxamide], the “pEC50, in vitro inhibition of cAMP” value was found to be 6.9.

Take `Cn1cccc(C(=O)Nc2ccc(S(C)(=O)=O)cc2N2CCC(Oc3ccc(F)cc3F)CC2)c1=O` [Example 30, N-(2-(4-(2,4-difluorophenoxy)piperidin-1-yl)-4-(methylsulfonyl)phenyl)-1-methyl-2-oxo-1,2-dihydropyridine-3-carboxamide]: the “pEC50, in vitro inhibition of cAMP” value was 7.2.
